Source: ChEMBL document CHEMBL2401658, “Selectivity of phenothiazine cholinesterase inhibitors for neurotransmitter systems” (Bioorg Med Chem Lett, 2013)

Columns and labels:
[1] = molecular target: Sodium-dependent dopamine transporter (Homo sapiens, UniProt Q01959); assay: Antagonist activity at DAT (unknown origin) by PDSP assay
D(3) dopamine receptor = D(3) dopamine receptor (Homo sapiens, UniProt P35462); assay: Antagonist activity at dopamine D3 receptor (unknown origin) by PDSP assay
[2] = molecular target: 5-hydroxytryptamine receptor 6 (Homo sapiens, UniProt P50406); assay: Antagonist activity at serotonin 5HT6 receptor (unknown origin) by PDSP assay
[3] = molecular target: Beta-3 adrenergic receptor (Homo sapiens, UniProt P13945); assay: Antagonist activity at adrenergic beta3 receptor (unknown origin) by PDSP assay
Beta-3 adrenergic receptor, sequence (P13945 whole entry): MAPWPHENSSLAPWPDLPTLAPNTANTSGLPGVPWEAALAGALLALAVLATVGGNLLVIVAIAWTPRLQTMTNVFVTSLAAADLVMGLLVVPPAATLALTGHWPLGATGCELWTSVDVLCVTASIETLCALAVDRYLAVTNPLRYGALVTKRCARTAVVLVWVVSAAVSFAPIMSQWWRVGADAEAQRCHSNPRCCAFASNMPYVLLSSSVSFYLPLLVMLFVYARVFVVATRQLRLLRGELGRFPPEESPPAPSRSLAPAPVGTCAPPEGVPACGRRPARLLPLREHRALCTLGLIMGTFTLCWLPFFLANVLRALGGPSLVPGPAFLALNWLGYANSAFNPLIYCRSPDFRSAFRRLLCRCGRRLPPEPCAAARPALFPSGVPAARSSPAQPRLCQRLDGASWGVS

[4] = molecular target: T1, 5-hydroxytryptamine receptor 2C (Homo sapiens, UniProt P28335); assay: Antagonist activity at serotonin 5HT2C receptor (unknown origin) by PDSP assay
T1 sequence (P28335 whole entry): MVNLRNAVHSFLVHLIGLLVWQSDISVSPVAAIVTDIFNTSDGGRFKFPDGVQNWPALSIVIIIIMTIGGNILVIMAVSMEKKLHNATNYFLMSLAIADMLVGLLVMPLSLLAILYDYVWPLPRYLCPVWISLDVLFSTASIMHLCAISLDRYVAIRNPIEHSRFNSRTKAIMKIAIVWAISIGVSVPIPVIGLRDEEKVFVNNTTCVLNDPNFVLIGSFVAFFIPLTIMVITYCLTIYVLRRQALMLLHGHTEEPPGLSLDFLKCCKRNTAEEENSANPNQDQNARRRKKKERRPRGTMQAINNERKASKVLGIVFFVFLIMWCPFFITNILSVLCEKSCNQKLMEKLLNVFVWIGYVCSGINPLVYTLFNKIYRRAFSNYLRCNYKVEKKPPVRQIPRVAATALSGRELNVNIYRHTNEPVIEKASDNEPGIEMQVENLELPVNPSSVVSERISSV

[5] = molecular target: T2, 5-hydroxytryptamine receptor 1A (Homo sapiens, UniProt P08908); assay: Antagonist activity at serotonin 5HT1A receptor (unknown origin) by PDSP assay
T2 sequence (P08908 whole entry): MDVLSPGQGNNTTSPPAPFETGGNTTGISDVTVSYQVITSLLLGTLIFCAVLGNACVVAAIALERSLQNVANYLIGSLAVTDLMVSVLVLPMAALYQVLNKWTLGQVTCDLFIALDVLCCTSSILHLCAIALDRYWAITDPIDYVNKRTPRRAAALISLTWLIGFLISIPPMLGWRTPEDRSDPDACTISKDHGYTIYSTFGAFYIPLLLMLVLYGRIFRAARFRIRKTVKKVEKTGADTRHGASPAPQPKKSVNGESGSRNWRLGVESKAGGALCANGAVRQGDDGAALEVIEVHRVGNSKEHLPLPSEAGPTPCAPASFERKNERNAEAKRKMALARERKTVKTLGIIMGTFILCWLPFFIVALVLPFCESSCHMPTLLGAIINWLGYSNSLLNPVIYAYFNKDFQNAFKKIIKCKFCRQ

[6] = molecular target: 5-hydroxytryptamine receptor 2B (Homo sapiens, UniProt P41595); assay: Antagonist activity at serotonin 5HT2B receptor (unknown origin) by PDSP assay
5-hydroxytryptamine receptor 2B, sequence (P41595 whole entry): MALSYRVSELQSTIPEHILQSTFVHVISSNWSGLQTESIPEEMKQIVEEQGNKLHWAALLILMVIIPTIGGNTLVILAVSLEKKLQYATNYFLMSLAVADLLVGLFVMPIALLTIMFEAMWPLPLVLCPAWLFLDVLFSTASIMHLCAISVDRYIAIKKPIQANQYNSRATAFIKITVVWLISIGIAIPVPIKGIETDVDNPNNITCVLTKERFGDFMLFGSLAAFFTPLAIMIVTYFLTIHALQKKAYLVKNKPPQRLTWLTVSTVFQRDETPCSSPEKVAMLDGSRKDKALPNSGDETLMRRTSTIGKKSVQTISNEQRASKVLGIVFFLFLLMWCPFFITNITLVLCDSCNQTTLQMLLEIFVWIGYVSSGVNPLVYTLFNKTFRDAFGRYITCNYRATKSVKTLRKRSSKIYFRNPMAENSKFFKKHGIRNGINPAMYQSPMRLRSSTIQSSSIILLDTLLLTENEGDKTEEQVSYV

[7] = molecular target: 5-hydroxytryptamine receptor 2A (Homo sapiens, UniProt P28223); assay: Antagonist activity at serotonin 5HT2A receptor (unknown origin) by PDSP assay
5-hydroxytryptamine receptor 2A, sequence (P28223 whole entry): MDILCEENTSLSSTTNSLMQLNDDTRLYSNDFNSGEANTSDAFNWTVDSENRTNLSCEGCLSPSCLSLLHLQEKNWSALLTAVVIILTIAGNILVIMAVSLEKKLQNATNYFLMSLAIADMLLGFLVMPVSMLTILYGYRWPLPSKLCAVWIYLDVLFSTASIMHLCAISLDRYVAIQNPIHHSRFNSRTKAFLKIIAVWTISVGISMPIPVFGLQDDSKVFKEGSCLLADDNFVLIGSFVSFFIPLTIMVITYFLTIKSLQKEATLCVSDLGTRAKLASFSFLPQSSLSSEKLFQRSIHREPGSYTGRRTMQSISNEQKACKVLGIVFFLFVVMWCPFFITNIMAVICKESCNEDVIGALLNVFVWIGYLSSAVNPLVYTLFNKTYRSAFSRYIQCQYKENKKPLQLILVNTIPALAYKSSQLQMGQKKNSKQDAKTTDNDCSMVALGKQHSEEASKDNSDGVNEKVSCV

Cholinesterase = Cholinesterase (Homo sapiens, UniProt P06276); assay: Inhibition of BuChE (unknown origin)
Cholinesterase, sequence (P06276 whole entry): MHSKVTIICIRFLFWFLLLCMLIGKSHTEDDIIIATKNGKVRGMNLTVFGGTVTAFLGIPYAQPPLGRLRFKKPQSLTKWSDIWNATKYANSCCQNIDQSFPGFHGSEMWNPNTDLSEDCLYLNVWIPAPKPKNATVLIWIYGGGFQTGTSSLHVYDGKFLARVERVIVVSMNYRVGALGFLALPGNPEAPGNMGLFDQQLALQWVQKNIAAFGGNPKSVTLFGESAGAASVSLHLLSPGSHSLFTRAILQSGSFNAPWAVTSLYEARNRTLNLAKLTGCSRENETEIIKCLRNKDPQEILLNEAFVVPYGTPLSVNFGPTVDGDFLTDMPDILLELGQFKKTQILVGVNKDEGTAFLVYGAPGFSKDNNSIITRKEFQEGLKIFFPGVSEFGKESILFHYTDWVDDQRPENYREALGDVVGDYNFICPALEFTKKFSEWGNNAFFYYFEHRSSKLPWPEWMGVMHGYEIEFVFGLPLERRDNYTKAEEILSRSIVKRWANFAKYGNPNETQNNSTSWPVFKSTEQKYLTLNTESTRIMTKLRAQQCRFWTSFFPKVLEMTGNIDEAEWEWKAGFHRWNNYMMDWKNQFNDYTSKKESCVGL

[8] = molecular target: Alpha-1A adrenergic receptor (Homo sapiens, UniProt P35348); assay: Antagonist activity at adrenergic alpha1A receptor (unknown origin) by PDSP assay
Histamine H2 receptor = Histamine H2 receptor (Homo sapiens, UniProt P25021); assay: Antagonist activity at histamine H2 receptor (unknown origin) by PDSP assay
Histamine H2 receptor, sequence (P25021 whole entry): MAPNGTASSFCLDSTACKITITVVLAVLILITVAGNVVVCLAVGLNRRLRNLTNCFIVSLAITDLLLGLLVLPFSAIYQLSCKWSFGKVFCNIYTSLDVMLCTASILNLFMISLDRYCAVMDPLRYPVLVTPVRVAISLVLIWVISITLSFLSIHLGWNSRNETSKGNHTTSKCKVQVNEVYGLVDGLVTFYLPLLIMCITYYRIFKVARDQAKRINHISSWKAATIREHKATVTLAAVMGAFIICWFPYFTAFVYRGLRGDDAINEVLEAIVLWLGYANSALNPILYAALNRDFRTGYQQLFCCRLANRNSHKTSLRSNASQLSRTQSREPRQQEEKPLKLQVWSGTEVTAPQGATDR

[9] = molecular target: Sodium-dependent serotonin transporter (Homo sapiens, UniProt P31645); assay: Antagonist activity at serotonin transporter (unknown origin) by PDSP assay
[10] = molecular target: Alpha-1D adrenergic receptor (Homo sapiens, UniProt P25100); assay: Antagonist activity at adrenergic alpha 1D receptor (unknown origin) by PDSP assay
[11] = molecular target: Alpha-2B adrenergic receptor (Homo sapiens, UniProt P18089); assay: Antagonist activity at adrenergic alpha2B receptor (unknown origin) by PDSP assay
D(1A) dopamine receptor = D(1A) dopamine receptor (Homo sapiens, UniProt P21728); assay: Antagonist activity at dopamine D1 receptor (unknown origin) by PDSP assay
[12] = molecular target: 5-hydroxytryptamine receptor 7 (Homo sapiens, UniProt P34969); assay: Antagonist activity at serotonin 5HT7 receptor (unknown origin) by PDSP assay
[13] = molecular target: Alpha-2A adrenergic receptor (Homo sapiens, UniProt P08913); assay: Antagonist activity at adrenergic alpha2A receptor (unknown origin) by PDSP assay
[14] = molecular target: 5-hydroxytryptamine receptor 5A (Homo sapiens, UniProt P47898); assay: Antagonist activity at serotonin 5HT5A receptor (unknown origin) by PDSP assay
[15] = molecular target: Muscarinic acetylcholine receptor M5 (Homo sapiens, UniProt P08912); assay: Antagonist activity at muscarinic M5 receptor (unknown origin) by PDSP assay
[16] = molecular target: 5-hydroxytryptamine receptor 1B (Homo sapiens, UniProt P28222); assay: Antagonist activity at serotonin 5HT1B receptor (unknown origin) by PDSP assay
[17] = molecular target: Muscarinic acetylcholine receptor M3 (Homo sapiens, UniProt P20309); assay: Antagonist activity at muscarinic M3 receptor (unknown origin) by PDSP assay
[18] = molecular target: Muscarinic acetylcholine receptor M4 (Homo sapiens, UniProt P08173); assay: Antagonist activity at muscarinic M4 receptor (unknown origin) by PDSP assay
[19] = molecular target: Muscarinic acetylcholine receptor M2 (Homo sapiens, UniProt P08172); assay: Antagonist activity at muscarinic M2 receptor (unknown origin) by PDSP assay
Histamine H3 receptor = Histamine H3 receptor (Homo sapiens, UniProt Q9Y5N1); assay: Antagonist activity at histamine H3 receptor (unknown origin) by PDSP assay
Histamine H3 receptor, sequence (Q9Y5N1 whole entry): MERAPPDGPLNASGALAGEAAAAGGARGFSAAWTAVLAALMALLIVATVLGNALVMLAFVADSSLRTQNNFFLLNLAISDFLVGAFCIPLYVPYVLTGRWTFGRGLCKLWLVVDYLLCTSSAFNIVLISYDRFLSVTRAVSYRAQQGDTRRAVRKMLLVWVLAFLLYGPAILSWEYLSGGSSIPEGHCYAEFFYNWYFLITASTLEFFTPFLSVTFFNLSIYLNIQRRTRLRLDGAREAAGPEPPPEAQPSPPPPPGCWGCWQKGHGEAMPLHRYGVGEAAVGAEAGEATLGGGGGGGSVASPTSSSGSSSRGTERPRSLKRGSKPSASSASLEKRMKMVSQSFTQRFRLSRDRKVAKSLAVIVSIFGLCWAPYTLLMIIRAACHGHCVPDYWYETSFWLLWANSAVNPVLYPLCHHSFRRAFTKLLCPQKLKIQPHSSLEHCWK

[20] = molecular target: Muscarinic acetylcholine receptor M1 (Homo sapiens, UniProt P11229); assay: Antagonist activity at muscarinic M1 receptor (unknown origin) by PDSP assay
Muscarinic acetylcholine receptor M1, sequence (P11229 whole entry): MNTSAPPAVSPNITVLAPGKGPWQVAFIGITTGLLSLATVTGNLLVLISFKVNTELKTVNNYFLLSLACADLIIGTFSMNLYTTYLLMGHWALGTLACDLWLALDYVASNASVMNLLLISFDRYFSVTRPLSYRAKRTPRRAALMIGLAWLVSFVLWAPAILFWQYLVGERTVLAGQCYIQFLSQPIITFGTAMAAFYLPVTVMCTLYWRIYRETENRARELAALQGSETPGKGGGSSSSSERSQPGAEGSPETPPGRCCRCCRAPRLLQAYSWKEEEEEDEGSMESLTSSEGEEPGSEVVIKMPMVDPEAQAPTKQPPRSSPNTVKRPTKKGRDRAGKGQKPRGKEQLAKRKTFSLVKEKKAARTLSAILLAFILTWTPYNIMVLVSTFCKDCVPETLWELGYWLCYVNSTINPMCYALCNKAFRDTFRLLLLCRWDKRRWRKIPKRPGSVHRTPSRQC

[21] = molecular target: Alpha-2C adrenergic receptor (Homo sapiens, UniProt P18825); assay: Antagonist activity at adrenergic alpha2C receptor (unknown origin) by PDSP assay
Alpha-2C adrenergic receptor, sequence (P18825 whole entry): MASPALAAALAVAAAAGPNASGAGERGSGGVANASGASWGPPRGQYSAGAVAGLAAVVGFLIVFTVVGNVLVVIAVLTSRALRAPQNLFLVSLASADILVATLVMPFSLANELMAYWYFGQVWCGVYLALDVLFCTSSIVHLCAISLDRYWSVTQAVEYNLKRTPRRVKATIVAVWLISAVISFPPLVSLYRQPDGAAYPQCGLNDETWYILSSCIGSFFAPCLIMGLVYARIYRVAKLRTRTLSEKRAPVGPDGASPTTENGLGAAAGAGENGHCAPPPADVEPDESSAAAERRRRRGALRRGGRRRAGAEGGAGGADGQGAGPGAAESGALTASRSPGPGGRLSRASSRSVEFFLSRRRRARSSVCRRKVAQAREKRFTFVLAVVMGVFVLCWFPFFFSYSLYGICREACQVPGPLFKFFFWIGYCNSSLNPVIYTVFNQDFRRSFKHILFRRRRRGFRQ

Histamine H1 receptor = Histamine H1 receptor (Homo sapiens, UniProt P35367); assay: Antagonist activity at histamine H1 receptor (unknown origin) by PDSP assay
[22] = molecular target: 5-hydroxytryptamine receptor 3A (Homo sapiens, UniProt P46098); assay: Antagonist activity at serotonin 5HT3 receptor (unknown origin) by PDSP assay
[23] = molecular target: 5-hydroxytryptamine receptor 1D (Homo sapiens, UniProt P28221); assay: Antagonist activity at serotonin 5HT1D receptor (unknown origin) by PDSP assay

Sodium-dependent dopamine transporter, sequence (Q01959 whole entry): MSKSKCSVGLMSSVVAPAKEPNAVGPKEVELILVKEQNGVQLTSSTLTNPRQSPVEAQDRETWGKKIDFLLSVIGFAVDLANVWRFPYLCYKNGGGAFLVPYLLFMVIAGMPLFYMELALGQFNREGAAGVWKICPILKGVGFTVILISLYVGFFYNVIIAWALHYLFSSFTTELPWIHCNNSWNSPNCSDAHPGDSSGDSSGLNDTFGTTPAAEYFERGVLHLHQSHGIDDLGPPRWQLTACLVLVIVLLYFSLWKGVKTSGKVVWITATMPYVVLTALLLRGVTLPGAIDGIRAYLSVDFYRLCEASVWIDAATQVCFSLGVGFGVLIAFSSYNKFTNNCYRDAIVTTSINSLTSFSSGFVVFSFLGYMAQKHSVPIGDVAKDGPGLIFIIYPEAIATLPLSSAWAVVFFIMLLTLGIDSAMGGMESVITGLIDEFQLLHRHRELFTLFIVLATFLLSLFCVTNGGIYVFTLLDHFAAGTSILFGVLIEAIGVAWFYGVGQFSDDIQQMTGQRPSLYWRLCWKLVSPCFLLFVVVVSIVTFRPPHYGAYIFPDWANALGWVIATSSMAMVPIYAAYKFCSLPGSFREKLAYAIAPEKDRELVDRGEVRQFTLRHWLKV
D(3) dopamine receptor, sequence (P35462 whole entry): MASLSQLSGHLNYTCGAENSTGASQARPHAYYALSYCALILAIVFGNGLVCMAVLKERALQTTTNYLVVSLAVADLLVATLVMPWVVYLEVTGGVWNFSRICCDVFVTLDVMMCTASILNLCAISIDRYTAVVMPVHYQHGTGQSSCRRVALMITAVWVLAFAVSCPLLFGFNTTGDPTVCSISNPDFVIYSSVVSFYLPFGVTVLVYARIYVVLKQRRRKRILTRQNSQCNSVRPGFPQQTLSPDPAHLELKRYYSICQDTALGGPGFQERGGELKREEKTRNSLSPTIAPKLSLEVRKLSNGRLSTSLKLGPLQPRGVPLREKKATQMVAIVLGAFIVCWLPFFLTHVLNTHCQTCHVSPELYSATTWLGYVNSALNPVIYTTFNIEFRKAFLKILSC

For O=C(c1cccc(Br)c1)N1c2ccccc2Sc2ccccc21, which Ki [1] is on record?
The Ki was 92 nM.

CC(C(=O)N1c2ccccc2Sc2ccccc21)c1ccccc1 (stereo not drawn) was tested. Which Ki (D(3) dopamine receptor) did it give?
The Ki was 8900 nM.

And the Ki [2]?
The Ki was 1200 nM.

And the Ki [3]?
The Ki was 2500 nM.

And the Ki [4]?
The Ki was 390 nM.

And the Ki [5]?
The Ki was 1100 nM.

What about the Ki [6] of the same compound?
The Ki was 170 nM.

And the Ki [7]?
The Ki was 180 nM.

What does the source list for O=C(C1CCCCCC1)N1c2ccccc2Sc2ccccc21?
Ki (Cholinesterase): 860 nM; Ki [7]: 1700 nM

Which results are given for O=C(Cc1ccc2ccccc2c1)N1c2ccccc2Sc2ccccc21?
Ki [8]: 330 nM; Ki [2]: 9900 nM; Ki [4]: 2200 nM; Ki [6]: 2000 nM; Ki [1]: 6600 nM; Ki (Cholinesterase): 30 nM

Which results are given for O=C(CCCc1ccccc1)N1c2ccccc2Sc2ccccc21?
Ki (Histamine H2 receptor): 7500 nM; Ki [9]: 3800 nM; Ki [10]: 4100 nM; Ki [3]: 1700 nM; Ki [1]: 3300 nM; Ki [7]: 1600 nM

With O=C(Oc1cccc2ccccc12)N1c2ccccc2Sc2ccccc21 as the compound, how does the Ki [1] read?
Its Ki is 3900 nM.

And the Ki (Cholinesterase)?
The Ki was 40 nM.

O=C(OCCN1CCCC1)N1c2ccccc2Sc2ccccc21 was tested. Which Ki [11] did it give?
Its Ki is 800 nM.

What about the Ki (D(1A) dopamine receptor) of the same compound?
Its Ki is 5900 nM.

What about the Ki [12] of the same compound?
The Ki was 330 nM.

What about the Ki [13] of the same compound?
The Ki was 95 nM.

And the Ki [14]?
Its Ki is 2200 nM.

And the Ki [15]?
Its Ki is 6 nM.

What about the Ki [16] of the same compound?
The Ki was 2200 nM.

What about the Ki [17] of the same compound?
The Ki was 66 nM.

What about the Ki [18] of the same compound?
The Ki was 54 nM.

What about the Ki [19] of the same compound?
Its Ki is 100 nM.

And the Ki (Histamine H3 receptor)?
The Ki was 6000 nM.

And the Ki [20]?
The Ki was 2 nM.

What about the Ki [21] of the same compound?
The Ki was 830 nM.

What about the Ki (Histamine H1 receptor) of the same compound?
Its Ki is 29 nM.

And the Ki [22]?
Its Ki is 1900 nM.

And the Ki (Histamine H2 receptor)?
Its Ki is 540 nM.

What about the Ki (D(3) dopamine receptor) of the same compound?
The Ki was 1000 nM.

What about the Ki [4] of the same compound?
Its Ki is 940 nM.

What about the Ki [5] of the same compound?
Its Ki is 1700 nM.

What about the Ki [6] of the same compound?
The Ki was 100 nM.

What about the Ki [1] of the same compound?
Its Ki is 970 nM.

And the Ki [7]?
Its Ki is 2400 nM.

CCN(CC)CCCOC(=O)N1c2ccccc2Sc2ccccc21 was tested. Which Ki [15] did it give?
The Ki was 120 nM.

What about the Ki [17] of the same compound?
Its Ki is 170 nM.

And the Ki [18]?
The Ki was 21 nM.

And the Ki [19]?
Its Ki is 220 nM.

What about the Ki (Histamine H3 receptor) of the same compound?
The Ki was 960 nM.

And the Ki [20]?
The Ki was 64 nM.

What about the Ki [21] of the same compound?
Its Ki is 600 nM.

And the Ki (Histamine H1 receptor)?
The Ki was 430 nM.

What about the Ki [22] of the same compound?
Its Ki is 3900 nM.

What about the Ki [23] of the same compound?
The Ki was 2700 nM.

And the Ki (Histamine H2 receptor)?
The Ki was 1400 nM.

What about the Ki (D(3) dopamine receptor) of the same compound?
The Ki was 1000 nM.

And the Ki [4]?
Its Ki is 3100 nM.

And the Ki [5]?
The Ki was 450 nM.

And the Ki [6]?
Its Ki is 630 nM.

What about the Ki [1] of the same compound?
The Ki was 6000 nM.

What about the Ki [7] of the same compound?
Its Ki is 3600 nM.
